# Measured values as given in PMC5786306, “An AKAP-Lbc-RhoA interaction inhibitor promotes the translocation of aquaporin-2 to the plasma membrane of renal collecting duct principal cells” (PLoS ONE, 2018).
# Assays:
# [1] = target: T1, AKAP-Lbc/DHPH-induced RhoA activation (Homo sapiens, UniProt P61586); assay: Guanine nucleotide exchange (GEF) assay with mant-GTP (screen and secondary assays); assay type: biochemical
# T1 construct: AKAP-Lbc/DHPH (aa 1923–2336 of human AKAP-Lbc; NP_006729.4, NCBI); made in house; host or cells: E. coli Rosetta (DE3)
# T1 sequence (P61586 whole entry, the tested form may be a part): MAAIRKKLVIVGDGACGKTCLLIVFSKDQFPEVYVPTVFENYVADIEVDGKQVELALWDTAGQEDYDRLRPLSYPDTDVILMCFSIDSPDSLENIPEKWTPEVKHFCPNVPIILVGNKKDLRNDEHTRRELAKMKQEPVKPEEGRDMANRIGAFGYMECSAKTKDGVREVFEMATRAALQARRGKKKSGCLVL
# [2] = target: T2, interaction of the DH domain of AKAP-Lbc and RhoA (Homo sapiens, UniProt P61586); assay: Alpha screen assay; assay type: binding
# T2 construct: The proteins used were N-terminally His6-tagged AKAP-Lbc-DH domain
# T2 sequence (P61586 whole entry, the tested form may be a part): as above
# Procedure: Assays were performed according to the manufacturer’s protocol (PerkinElmer) with minor modifications. All reagents were diluted in buffer containing 25 mM Hepes, pH 7.4, 100 mM NaCl, 0.1% bovine serum albumin, 0.05% CHAPS and 50 μM GDP and allowed to equilibrate to room temperature before addition to plates. […] The proteins used were N-terminally His6-tagged AKAP-Lbc-DH domain and C-terminally biotinylated RhoA. […] 8 μL of assay buffer containing donor and acceptor beads at 1:400 dilution was then added, the plate was incubated in the dark for 60 min and then read on a PheraStar FS plate reader (BMG Labtech, Germany) using an AlphaScreen^TM 680 excitation/570 emission filter set.
# 11.6 μL of a solution containing 100 nM RhoA and 200 nM AKAP13 in assay buffer was added and incubated with the compounds for 30 min at RT in foil-sealed plates. 8 μL of assay buffer containing donor and acceptor beads at 1:400 dilution was added. The plate was incubated in the dark for 60 min and then read on a PheraStar FS plate reader.
# [3] = tested on: AQP2 localization in MCD4 cells; assay: Immunofluorescence microscopy of AQP2 in MCD4 cells; assay type: cell-based, mouse; details: 30 μM
# GFP-AKAP-Lbc/DHPH = target: T3, GFP-AKAP-Lbc/DHPH (Homo sapiens, UniProt Q12802); assay: Microscale thermophoresis (MST) with GFP-AKAP-Lbc/DHPH; assay type: binding; details: result in words
# T3 construct: His6-AKAP-Lbc/DHPH (aa 1972–2342 of human AKAP-Lbc; NP_006729.4); made in house; host or cells: HEK293-EBNA cells (transient transfection, pTT5)
# T3 sequence (Q12802 1972-2342 isoform Q12802-2): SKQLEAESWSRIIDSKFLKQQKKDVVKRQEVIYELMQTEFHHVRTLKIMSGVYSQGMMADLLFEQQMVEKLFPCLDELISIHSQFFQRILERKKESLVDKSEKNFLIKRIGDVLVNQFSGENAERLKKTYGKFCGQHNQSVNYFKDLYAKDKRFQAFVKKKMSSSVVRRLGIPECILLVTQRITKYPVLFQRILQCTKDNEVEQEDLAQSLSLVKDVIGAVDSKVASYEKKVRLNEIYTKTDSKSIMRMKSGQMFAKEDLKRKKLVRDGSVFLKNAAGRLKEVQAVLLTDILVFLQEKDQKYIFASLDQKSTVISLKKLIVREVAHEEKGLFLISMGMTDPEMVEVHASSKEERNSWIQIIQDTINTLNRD
# Procedure: The final concentration of GFP-AKAP-Lbc/DHPH was set to 150 nM, 95% LED and 80% MST laser power. […] The samples were incubated in the dark for 1 h incubation at room temperature, and measured with 30 sec laser-on and 5 sec laser-off time at a Monolith NT.115 device (NanoTemper). Measured fluorescence (F) was normalised (Fhot/Fcold = Fsteady state/Finitial state, Fig 3). Values of thermophoresis + T-jump were related to average of each measurement row (16 capillaries). Final values are given as ‰.
# Fig 4 The Scaff10 derivative Scaff10-8 binds to RhoA but not to the DHPH domain of AKAP-Lbc. (A-D) Microscale thermophoresis (MST) takes advantage of the phenomenon of directed movement of particles in a temperature gradient. Binding events lead to changes in the hydration shell of biomolecules and a relative change of movement of the molecular complex along a temperature gradient. Using such changes, binding affinities can be determined. MST assays were carried out with (A) the recombinant DHPH domain of AKAP-Lbc fused with GFP and RhoA as a ligand and (B) fluorescent 647-RhoA and the His-tagged AKAP-Lbc/DHPH domain as a ligand. (C) MST assays for the analysis of the binding of Scaff10-8 to 647-RhoA. Upper panels: The concentration of fluorescent 647-RhoA remained constant and Scaff10-8 (left) and Scaff10-7 as a negative control (right) were titrated in increasing concentrations. Lower panels: Values of fluorescence corresponding to upper panels. (D) MST assay showing no binding of Scaff10-8 or Scaff10-7 to GFP-DHPH. Upper panels: The concentration of fluorescent GFP-AKAP-Lbc/DHPH remained constant and Scaff10-8 (left) and Scaff10-7 (right) were titrated in increasing concentrations. Lower panels: Values of fluorescence corresponding to upper panels. […] F norm = normalized fluorescence (fluorescence steady state/fluorescence initial state) indicated in ‰. n = 3–5. Mean ± SEM. […] The ligand protein named in each panel heading is used as the substance label, and it is uncertain whether these count as substances.
# [4] = tested on: AQP2 insertion into the plasma membrane of IMCD cells; assay: Biotinylation of cell surface proteins; assay type: cell-based, rat; details: Scaff10-8 30 μM, 1 or 24 h, forskolin 30 μM, 30 min
# Procedure: The assay was performed according to Bogum et al.. IMCD cells were treated with Scaff10-8 at a concentration of 30 μM for 1 or 24 h (0.3% DMSO final concentration). DMSO (0.3%) was used as a control for the 24 h of incubation. Cells were stimulated with forskolin (30 min, 30 μM). Cells were washed twice with ice-cold PBS and incubated with biotinylation buffer (500 μg Biotin per well; 10 mM triethanolamine; 150 mM NaCl; 1 mM MgCl2; 0.1 mM CaCl2; pH 8.0) for 60 min at 4°C. After two washing steps with biotinylation buffer, cells were incubated for 10 min with quenching buffer (50 mM NH4Cl in PBS) at 4°C. Lysates were prepared using biotinylation lysis buffer 1 (SLB; 0.5% Triton X-100; 0.2% BSA; Complete mini EDTA-free). Lysates were sonicated and incubated for 20 min at 37°C. Cell debris was removed by centrifugation (30 min, 15,000x g, 4°C). Lysates were incubated with 80 μl streptavidin agarose beads at 4°C overnight. Beads were washed three times with biotinylation lysis buffer 1 and 2 (SLB; 0.5% Triton X-100; Complete mini EDTA-free). Proteins were eluted using sample buffer and analyzed by Western blotting.
# (A) IMCD cells were treated with either compound (30 μM) or DMSO for 1 or 24 h. Membrane proteins were biotinylated followed by precipitation with streptavidin agarose beads. […] (B) Signals from A were quantified by densitometric analysis. […]
inhibitory effect in Alpha screen ([2]; result in words),Compound,IC50 [1] [µM],"ResidualPercentActivity ([1]; Suppl. Tab. 2, screening data) [%]","z_score ([1]; Suppl. Tab. 2, screening data)",localization of AQP2 in MCD4 cells [3],binding to GFP-AKAP-Lbc/DHPH (GFP-AKAP-Lbc/DHPH),IC50 [2] [µM],insertion of AQP2 into the plasma membrane [4]
,"COc1ccc(-c2coc3cc4oc(=O)c(C)c(C)c4cc23)cc1 [Scaff10, 3-(4-Methoxyphenyl)-5,6-dimethyl-furo[3,2-g]chromen-7-one]",26,-9.0,-9.0,,,,
without inhibitory effects,"CCOC(=O)CCc1c(C)c2ccc(OCC(=O)c3ccc(OC)cc3)cc2oc1=O [Scaff10-7, Ethyl 3-[7-[2-(4-methoxyphenyl)-2-oxo-ethoxy]-4-methyl-2-oxo-chromen-3-yl]propanoate]",,,,did not affect the location of AQP2,no binding,,
,"COc1ccc(-c2coc3cc4oc(=O)c(CCC(=O)O)c(C)c4cc23)cc1 [Scaff10-8, 3-[3-(4-Methoxyphenyl)-5-methyl-7-oxo-furo[3,2-g]chromen-6-yl] propanoic acid]",,,,induced cAMP-independently the translocation of AQP2 to the plasma membrane,no binding,42,does not promote the insertion of AQP2
